In paper PMC9893751, “Synthesis of Benzimidazole-1,2,4-triazole Derivatives as Potential Antifungal Agents Targeting 14α-Demethylase” (ACS Omega, 2023):
In brackets after ≈: the same amount, converted by molar mass.

Key:
L929 cell lines = assay: Cytotoxicity MTT assay on L929 fibroblasts; assay type: cell-based
Description: (§1) The cytotoxic effect of compounds 6a–6l was evaluated against L929 cell lines. For preliminary screening, the cytotoxic bioactivity of synthesized compounds was evaluated in vitro against L929 cell lines with the MTT assay. […] The effect of the compounds 6a–6l on the viability of L929 cell lines was analyzed by MTT assay as described in the previous work.[45]

C. albicans (ATCC 24433) = assay: In vitro antifungal activity (CLSI) against C. albicans; assay type: cell-based; details: for MIC: Candida albicans, ATCC24433
Description: (§2) Voriconazole and fluconazole (against candida strains) were used as standard reference drugs.

[1] = test system: C. parapsilopsis (ATCC 22019); assay: In vitro antifungal activity (CLSI) against C. parapsilosis; assay type: cell-based; details: for MIC: Lodderomyces parapsilosis, ATCC22019
Description: as §2

C. krusei (ATCC 6258) = assay: In vitro antifungal activity (CLSI) against C. krusei; assay type: cell-based; details: for MIC: Pichia kudriavzevii, ATCC6258
Description: as §2

C. glabrata (ATCC 9) = assay: In vitro antifungal activity (CLSI) against C. glabrata; assay type: cell-based; details: for Antifungal activity (MIC), C. glabrata / MIC: C. glabrata ATCC 9; for Effectiveness against C. glabrata compared with fluconazole / Effectiveness against C. glabrata compared with voriconazole: from MIC values; for MIC: Nakaseomyces glabratus, ATCC9
Description: as §2

[2] = Cytotoxicity MTT assay on L929 fibroblasts; assay type: cell-based; details: mouse, L929 fibroblast cells; 100 μM, 48 h, L929 cell lines, MTT
Description: as §1

| Compound | cell viability (%) (L929 cell lines; 100 µM) | Antifungal activity (MIC), C. albicans (C. albicans (ATCC 24433)) | Antifungal activity (MIC), C. parapsilosis [1] | Antifungal activity (MIC), C. krusei (C. krusei (ATCC 6258)) | Antifungal activity (MIC), C. glabrata (C. glabrata (ATCC 9)) | Effectiveness against C. glabrata compared with fluconazole (C. glabrata (ATCC 9)) | Effectiveness against C. glabrata compared with voriconazole (C. glabrata (ATCC 9)) | viability at 48 h, 100 µM [2] | MIC (C. albicans (ATCC 24433)) | melting point | MIC [1] | MIC (C. krusei (ATCC 6258)) | MIC (C. glabrata (ATCC 9)) | cell viability (%) (L929 cell lines; 100 μM, 48 h, L929 cell lines, MTT) | IC50 (L929 cell lines; Mus musculus, L929 fibroblasts, MTT, maximum dose 100 μM, 48 h, read-out: IC50 against L929) |
| --- | --- | --- | --- | --- | --- | --- | --- | --- | --- | --- | --- | --- | --- | --- | --- |
| 2-(4-(5-((2-(4-Nitrophenyl)-2-oxoethyl)thio)-4-phenyl-4H-1,2,4-triazol-3-yl)phenyl)-1H-benz[d]imidazole-5(6)-carbonitrile [6a] | 34 ± 6.19% | 31.25 mg/L | 62.5 mg/L | 125 mg/L | 1.95 mg/L | two times more effective | same activity | – | – | – | – | – | – | – | – |
| COc1ccc(C(=O)CSc2nnc(-c3ccc(-c4nc5cc(C#N)ccc5[nH]4)cc3)n2-c2ccccc2)cc1 [6b, 2-(4-(5-((2-(4-Methoxyphenyl)-2-oxoethyl)thio)-4-phenyl-4H-1,2,4-triazol-3-yl)phenyl)-1H-benz[d]imidazole-5(6)-carbonitrile] | – | – | – | – | – | four times more effective | two times more effective | 32.1 ± 1.38% | 31.2 mg/L (≈ 57.6 µM) | 177.6 °C | 31.2 mg/L (≈ 57.6 µM) | 125 mg/L (≈ 230 µM) | 0.97 mg/L (≈ 1.79 µM) | – | – |
| N#Cc1ccc(C(=O)CSc2nnc(-c3ccc(-c4nc5cc(C#N)ccc5[nH]4)cc3)n2-c2ccccc2)cc1 [6c, 2-(4-(5-((2-(4-Cyanophenyl)-2-oxoethyl)thio)-4-phenyl-4H-1,2,4-triazol-3-yl)phenyl)-1H-benz[d]imidazole-5(6)-carbonitrile] | 30.9 ± 1.42% | 31.25 mg/L | 31.25 mg/L | 125 mg/L | 1.95 mg/L | two times more effective | same activity | – | – | – | – | – | – | – | – |
| N#Cc1ccc2[nH]c(-c3ccc(-c4nnc(SCC(=O)c5ccc(F)cc5)n4-c4ccccc4)cc3)nc2c1 [6d, 2-(4-(5-((2-(4-Fluorophenyl)-2-oxoethyl)thio)-4-phenyl-4H-1,2,4-triazol-3-yl)phenyl)-1H-benz[d]imidazole-5(6)-carbonitrile] | 34.2 ± 5.13% | 62.5 mg/L | 125 mg/L | 125 mg/L | 1.95 mg/L | two times more effective | same activity | – | – | – | – | – | – | – | – |
| N#Cc1ccc2[nH]c(-c3ccc(-c4nnc(SCC(=O)c5ccc(-c6ccccc6)cc5)n4-c4ccccc4)cc3)nc2c1 [6e, 2-(4-(5-((2-([1,1′-Biphenyl]-4-yl)2-oxoethyl)thio)-4-phenyl-4H-1,2,4-triazol-3-yl)phenyl)-1H-benz[d]imidazole-5(6)-carbonitrile] | – | 62.5 mg/L | 62.5 mg/L | 125 mg/L | 1.95 mg/L | two times more effective | same activity | – | – | – | – | – | – | 40 ± 8.71% | – |
| N#Cc1ccc2[nH]c(-c3ccc(-c4nnc(SCC(=O)c5ccc(Br)cc5)n4-c4ccccc4)cc3)nc2c1 [6f, 2-(4-(5-((2-(4-Bromophenyl)-2-oxoethyl)thio)-4-phenyl-4H-1,2,4-triazol-3-yl)phenyl)-1H-benz[d]imidazole-5(6)-carbonitrile] | 27.6 ± 1.02% | 62.5 mg/L | 62.5 mg/L | 125 mg/L | 1.95 mg/L | two times more effective | same activity | – | – | – | – | – | – | – | – |
| N#Cc1ccc2[nH]c(-c3ccc(-c4nnc(SCC(=O)c5ccc(Cl)c(Cl)c5)n4-c4ccccc4)cc3)nc2c1 [6g, 2-(4-(5-((2-(3,4-Dichlorophenyl)-2-oxoethyl)thio)-4-phenyl-4H-1,2,4-triazol-3-yl)phenyl)-1H-benz[d]imidazole-5(6)-carbonitrile] | 34.6 ± 3.51% | 125 mg/L | 31.25 mg/L | 250 mg/L | 1.95 mg/L | two times more effective | same activity | – | – | – | – | – | – | – | – |
| N#Cc1ccc2[nH]c(-c3ccc(-c4nnc(SCC(=O)c5ccc(F)cc5F)n4-c4ccccc4)cc3)nc2c1 [6h, 2-(4-(5-((2-(2,4-Difluorophenyl)-2-oxoethyl)thio)-4-phenyl-4H-1,2,4-triazol-3-yl)phenyl)-1H-benz[d]imidazole-5(6)-carbonitrile] | 28.1 ± 1.48% | 62.5 mg/L | 62.5 mg/L | 62.5 mg/L | 1.95 mg/L | two times more effective | same activity | – | – | – | – | – | – | – | – |
| N#Cc1ccc2nc(-c3ccc(-c4nnc(SCC(=O)c5ccc(Cl)cc5)n4-c4ccccc4)cc3)[nH]c2c1 [6i, 2-(4-(5-((2-(4-Chlorophenyl)-2-oxoethyl)thio)-4-phenyl-4H-1,2,4-triazol-3-yl)phenyl)-1H-benz[d]imidazole-5(6)-carbonitrile] | – | – | – | – | – | four times more effective | two times more effective | 53.6 ± 2.82% | 62.5 mg/L (≈ 114 µM) | 197.9 °C | 31.2 mg/L (≈ 57.1 µM) | 125 mg/L (≈ 229 µM) | 0.97 mg/L (≈ 1.77 µM) | – | > 100 µM |
| N#Cc1ccc2nc(-c3ccc(-c4nnc(SCC(=O)c5ccc(Cl)cc5Cl)n4-c4ccccc4)cc3)[nH]c2c1 [6j, 2-(4-(5-((2-(2,4-Dichlorophenyl)-2-oxoethyl)thio)-4-phenyl-4H-1,2,4-triazol-3-yl)phenyl)-1H-benz[d]imidazole-5(6)-carbonitrile] | – | – | – | – | – | four times more effective | two times more effective | 32.5 ± 1.34% | 62.5 mg/L (≈ 107 µM) | 206.5 °C | 31.2 mg/L (≈ 53.7 µM) | 125 mg/L (≈ 215 µM) | 0.97 mg/L (≈ 1.67 µM) | – | – |
| N#Cc1ccc2[nH]c(-c3ccc(-c4nnc(SCC(=O)c5cccc([N+](=O)[O-])c5)n4-c4ccccc4)cc3)nc2c1 [6k, 2-(4-(5-((2-(3-Nitrophenyl)-2-oxoethyl)thio)-4-phenyl-4H-1,2,4-triazol-3-yl)phenyl)-1H-benz[d]imidazole-5(6)-carbonitrile] | 30.3 ± 0.41% | 31.25 mg/L | 31.25 mg/L | 125 mg/L | 1.95 mg/L | two times more effective | same activity | – | – | – | – | – | – | – | – |
| N#Cc1ccc2[nH]c(-c3ccc(-c4nnc(SCC(=O)c5ccccc5)n4-c4ccccc4)cc3)nc2c1 [6l, 2-(4-(5-((2-Oxo-2-phenylethyl)thio)-4-phenyl-4H-1,2,4-triazol-3-yl)phenyl)-1H-benz[d]imidazole-5(6)-carbonitrile] | 37.6 ± 3.55% | 31.25 mg/L | 31.25 mg/L | 125 mg/L | 1.95 mg/L | two times more effective | same activity | – | – | – | – | – | – | – | – |
| OC(Cn1cncn1)(Cn1cncn1)c1ccc(F)cc1F [fluconazole, reference compound] | – | – | – | – | – | – | – | – | 7.81 mg/L (≈ 25.5 µM) | – | 3.9 mg/L (≈ 12.7 µM) | 7.81 mg/L (≈ 25.5 µM) | 3.9 mg/L (≈ 12.7 µM) | – | – |
| C[C@@H](c1ncncc1F)[C@](O)(Cn1cncn1)c1ccc(F)cc1F [voriconazole, reference compound] | – | – | – | – | – | – | – | – | 3.9 mg/L (≈ 11.2 µM) | – | 3.9 mg/L (≈ 11.2 µM) | 3.9 mg/L (≈ 11.2 µM) | 1.95 mg/L (≈ 5.58 µM) | – | – |
